Test system: 596521-263-R-J1-PDC complex spheroids, viability % of control
Assay: Anticancer human tumor 596521-263-R-J1-PDC patient-derived soft tissue sarcoma cell line growth inhibition [GQUAD]
Settings: for IC50: curve of first compound; for viability, T/C: stronger effect = lower value
From the text: DNA G-quadruplex Stabilizer Agents in Combinations in Complex Spheroids
A high-throughput screen of multi-cell type tumor spheroids was designed to identify active combinations of DNA G-quadruplex stabilizer agents and targeted small molecules. Complex spheroids include a stromal component modeled by human endothelial cells (HUVEC) and fibroblasts modeled by human mesenchymal stem cells (MSCs). The concentration ranges selected for each drug and investigational agent were based upon clinically achievable concentrations if the clinical Cmax of the agent was known.
Compounds. The drugs and investigational agents: pidnarulex (CX-5461; NSC782164), APTO-253 (NSC789042), BRACO-19 (NSC847499), peposertib (NSC802822), ceralasertib (NSC780249), elimusertib (NSC800525), camonsertib (NSC841442), AZD-1390 (NSC803789), olaparib (NSC753686), talazoparib (NSC767125), ART-558 (NSC835418), sotorasib (NSC818433), MRTX-1133 (NSC836407), SN-38 (NSC673596), topotecan (NSC609699), etoposide (NSC141540), doxorubicin (NSC123127), gemcitabine (NSC613327), 5-fluorouracil (NSC19893), paclitaxel (NSC125973), vemurafenib (NSC761431), panobinostat (NSC761190), R-306465 (JNJ-16241199; NSC773264), adavosertib (NSC754352), TP-3654 (NSC805149), carboplatin (NSC241240), KSQ-4279 (NSC840948), and staurosporine (NSC755774) were obtained from the National Cancer Institute (NCI) Developmental Therapeutics Program Chemical Repository (34). The FDA-approved anticancer drug set is available from the NCI Developmental Therapeutics Program. […] The stock solutions were prepared in dimethyl sulfoxide (DMSO, Sigma-Aldrich, St. Louis, MO, cat. D2650) at 800-fold the tested concentration and stored at -70 degrees C prior to their use. All drugs and investigational agents were tested over a range starting from a high concentration at or near the clinical Cmax and decreasing in half-log increments. If the clinical Cmax for an agent had not been determined, the highest concentration tested was 10 microM.
2.3 Cell Culture. All cells were maintained in an incubator at 37 degrees C and 5% CO2 with 95% humidity. The PDC lines were cultured according to standard operating procedures established by the NCI PDMR. All PDCs were thawed and cultured in Matrigel-coated flasks prepared with a working solution of 1X Ham's F-12 nutrient mix, without supplementation (Invitrogen, cat. 11765054), 100 U/mL penicillin-streptomycin (Invitrogen, cat. 15140122), and 2.5% Matrigel (Corning Inc., cat. 354248) for the first three passages. The 857933-349-R-J2-PDC line was cultured in 6C/Colon 1B media, which includes advanced DMEM/F-12 (Thermo Fisher Scientific, cat. 12634028), 10 mM HEPES (Thermo Fisher Scientific, cat. 15630080), 1X GlutaMAX supplement (Thermo Fisher Scientific, cat. 35050061), 0.1 mg/mL primocin (InvivoGen, cat. ant-pm-2), 10% defined fetal bovine serum, heat inactivated (HyClone Laboratories Inc., cat. SH30070.03HI), 50% L-WRN conditioned media (ATCC, cat. CRL-3276), 1.25 mM N-Acetyl-L-cysteine (Sigma-Aldrich, cat. A9165), 10 mM nicotinamide (Sigma-Aldrich, cat. N0636), 1X B-27 supplement (Thermo Fisher Scientific, cat. 17504044), 1X N-2 supplement (Thermo Fisher Scientific, cat. 17502048), 10 microM Y-27632 dihydrochloride (Tocris Bioscience, cat. 1254), and 50 ng/mL human EGF recombinant protein (Thermo Fisher Scientific, cat. PHG0311). The 485176-168-R4-J1-PDC line was cultured in Panc media, which includes all 6C/Colon 1B media components plus 100 ng/mL human FGF-10 (Thermo Fisher Scientific, cat. 100-26), 500 nM SB-431542 (Selleckchem, cat. S1067), and gastrin (Tocris, cat. 3006).
[…]
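Further: spheroids exposed to drugs for 7 days before viability reading.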

Compound `CC[C@@]1(O)C(=O)OCc2c1cc1n(c2=O)Cc2cc3c(CN(C)C)c(O)ccc3nc2-1` + CN(C)c1ccc(Nc2c3ccc(NC(=O)CCN4CCCC4)cc3nc3cc(NC(=O)CCN4CCCC4)ccc23)cc1 has an IC50 (second compound 0.0316 µM) greater than 316 nM, an IC50 (second compound 0.1 µM) of 161 nM and an IC50 (second compound 0.316 µM) greater than 316 nM. The IC50 (second compound 1 µM) was greater than 316 nM, the IC50 (second compound 3.16 µM) was greater than 316 nM and the IC50 (second compound 10 µM) was 76.9 nM. It also gave a viability, T/C (second compound 0.0316 µM, first compound 0.000999 µM) of 99.7%, a viability, T/C (second compound 0.0316 µM, first compound 0.00316 µM) of 108% and a viability, T/C (second compound 0.0316 µM, first compound 0.00999 µM) of 91.9%. It also gave a viability, T/C (second compound 0.0316 µM, first compound 0.0316 µM) of 62.4%, a viability, T/C (second compound 0.0316 µM, first compound 0.0999 µM) of 63.8% and a viability, T/C (second compound 0.0316 µM, first compound 0.316 µM) of 53.2%. It also gave a viability, T/C (second compound 0.1 µM, first compound 0.000999 µM) of 114%, a viability, T/C (second compound 0.1 µM, first compound 0.00316 µM) of 105% and a viability, T/C (second compound 0.1 µM, first compound 0.00999 µM) of 103%. It also gave a viability, T/C (second compound 0.1 µM, first compound 0.0316 µM) of 65.3%, a viability, T/C (second compound 0.1 µM, first compound 0.0999 µM) of 54.3% and a viability, T/C (second compound 0.1 µM, first compound 0.316 µM) of 46.2%. It also gave a viability, T/C (second compound 0.316 µM, first compound 0.000999 µM) of 94.5%, a viability, T/C (second compound 0.316 µM, first compound 0.00316 µM) of 97.9% and a viability, T/C (second compound 0.316 µM, first compound 0.00999 µM) of 83.3%. It also gave a viability, T/C (second compound 0.316 µM, first compound 0.0316 µM) of 74.1%, a viability, T/C (second compound 0.316 µM, first compound 0.0999 µM) of 59.4% and a viability, T/C (second compound 0.316 µM, first compound 0.316 µM) of 53.6%. The viability, T/C (second compound 1 µM, first compound 0.000999 µM) was 92%, the viability, T/C (second compound 1 µM, first compound 0.00316 µM) was 92.9% and the viability, T/C (second compound 1 µM, first compound 0.00999 µM) was 86.1%. The viability, T/C (second compound 1 µM, first compound 0.0316 µM) was 73.1%, the viability, T/C (second compound 1 µM, first compound 0.0999 µM) was 57.3% and the viability, T/C (second compound 1 µM, first compound 0.316 µM) was 54.2%. The viability, T/C (second compound 3.16 µM, first compound 0.000999 µM) was 95.8%, the viability, T/C (second compound 3.16 µM, first compound 0.00316 µM) was 88.8% and the viability, T/C (second compound 3.16 µM, first compound 0.00999 µM) was 84.1%. It also gave a viability, T/C (second compound 3.16 µM, first compound 0.0316 µM) of 61.1%, a viability, T/C (second compound 3.16 µM, first compound 0.0999 µM) of 59.1% and a viability, T/C (second compound 3.16 µM, first compound 0.316 µM) of 52.5%. It also gave a viability, T/C (second compound 10 µM, first compound 0.000999 µM) of 58.5%, a viability, T/C (second compound 10 µM, first compound 0.00316 µM) of 70.6% and a viability, T/C (second compound 10 µM, first compound 0.00999 µM) of 54.6%. For the same compound, the viability, T/C (second compound 10 µM, first compound 0.0316 µM) was 50.1%, the viability, T/C (second compound 10 µM, first compound 0.0999 µM) was 52% and the viability, T/C (second compound 10 µM, first compound 0.316 µM) was 41.4%.

Reference: PubChem BioAssay AID2060500 (Molecular Pharmacology Branch, DTP, NCI, 2025)
